Key:
Jurkat cells = assay: Antioxidant activity, DCFH-DA oxidative stress model (H2O2 + LPS) in Jurkat cells; assay type: cell-based; conditions: Homo sapiens, 1000 μM H2O2 + 1 μg/mL LPS, highest concentration tested 50 μg/mL, parenthetic 95% confidence limits
Experimental: Chemicals and reagents—Bacterial lipopolysaccharide (LPS; B E. coli 055:B5) was from Sigma (St. […] (Eugene, Oreg.); DCFH-DA was dissolved in dimethyl sulfoxide (DMSO) as a stock solution and kept frozen at −20° C. […] Positive control compounds included caffeic acid and Trolox obtained from Sigma (St. Louis, Mo.) and were of the highest purity commercially available. […] Unless otherwise noted, all standard reagents were obtained from Sigma and were the purest commercially available. […] Excess DCFH-DA was removed by centrifuging the cells for 10 minutes and resuspending them in the original growth medium. Cells were plated in microtiter wells at a concentration of approximately 10^6 cells per well. […] Fluorescence for each well was captured, digitized and stored on a computer using Cytofluor (Version 4.0). Measurements of fluorescence were made every ten minutes for 60 minutes. The change in DCF fluorescence is presented relative to the LPS-stimulated Jurkat cells alone; […] […] Antioxidant activity of the test materials—Oxidative stress was measured in cells using DCFH-DA in a microtiter plate assay as previously described [Wang, H. and Joseph, J. A. (1999) Quantifying cellular oxidative stress by dichlorofluorescein assay using microplate reader. […] Thus, the assay can be used to quantify overall oxidative stress in cells. […] Cm is determined from the x-intercept of the median-effect plot. […]

[1] = clinical trials; cited from earlier work
RAW 264.7 cells = assay: Antioxidant activity, DCFH-DA oxidative stress model (H2O2 + LPS) in RAW 264.7 cells; assay type: cell-based, murine; conditions: Mus musculus, RAW264.7; 1000 μM H2O2 + 1 μg/mL LPS; highest concentration tested 50 μg/mL; parenthetic 95% confidence limits

## Cc1c(C)c2c(c(C)c1O)CCC(C)(C(=O)O)O2 (stereo not shown) [Trolox]
Jurkat cells
  IC50: 5.4 mg/L

## CC(=O)Oc1ccccc1C(=O)O [Aspirin, acetylsalicylic acid]
[1]
  reduction of primary and secondary incidence of myocardial infarction and other CVDs: approximately 25%

## O=C(O)/C=C/c1ccc(O)c(O)c1 [Caffeic acid, caffeic acid]
RAW 264.7 cells
  IC50: 3.3 mg/L
Jurkat cells
  IC50: 3.2 mg/L
